Test results: US7538194B2, “Genes encoding several poly (ADP-ribose) glycohydrolase (PARG) enzymes, the proteins and fragments thereof, and antibodies immunoreactive therewith” (University of Kentucky Research Foundation, priority 1998, dated 2009)

Target: T1, bPARG (construct C, 75-kDa carboxyl-terminal region) expressed in E. coli (Bos taurus, UniProt O02776)
T1 construct: construct C contained only the 75-kDa carboxyl-terminal region of the PARG, which predicted a fusion protein of approximately 79 kDa; made in house; host or cells: E. coli (pTrcHis expression plasmid; supernatant of crude cell extract)
Assay: PARG activity, thin layer chromatography assay measuring release of [32P]ADP-ribose from [32P]ADP-ribose polymers
Type: biochemical, bovine
Conditions: 167 μm inhibitor; extract of E. coli strain containing construct C, 5 h after induction by IPTG (FIG. 6, bar 6 vs bar 5)
Description: For expression experiments, bacterial cultures were grown at 37° C. in 1% Bacto-tryptone, 0.5% yeast extract, and 0.5% NaCl to a density of approximately 0.6 A600/ml and were induced with 1 mM isopropyl-β-D-thiogalactoside (IPTG). Cells were-collected by centrifugation, and crude extracts were prepared by sonication (10 A600/ml) in 10 mM sodium phosphate buffer, pH 7.2, 150 mM NaCl, 0.5 mg/ml lysozyme, 0.1 mg/ml phenylmethylsulfonyl fluoride, 1 mM EDTA, 0.7 μg/ml pepstatin A, 0.5 μg/ml leupeptin, and 1 μg/ml aprotinin. Cell extracts were subjected to centrifugation, and the supernatant fraction was used for assay. PARG assay conditions were as described previously (52). Following incubations, portions of reaction mixture were analyzed by thin layer chromatography or subjected to anion exchange HPLC.
Using a thin layer chromatography assay that measures release of [^32P]ADP-ribose from [^32P]ADP-ribose polymers (53), PARG activity was detected in extracts from cells transformed by each of the constructs. […] Reaction mixtures contained approximately 15,000 cpm of [^32P]ADP-ribose polymers, and the cpm shown represent ADP-ribose released from the ADP-ribose polymers. […] No activity was detected in cells transformed with the empty vector, but activity was detectable without induction by IPTG, indicating a leaky lac promoter.

T1 sequence (O02776 322-977 limits assumed): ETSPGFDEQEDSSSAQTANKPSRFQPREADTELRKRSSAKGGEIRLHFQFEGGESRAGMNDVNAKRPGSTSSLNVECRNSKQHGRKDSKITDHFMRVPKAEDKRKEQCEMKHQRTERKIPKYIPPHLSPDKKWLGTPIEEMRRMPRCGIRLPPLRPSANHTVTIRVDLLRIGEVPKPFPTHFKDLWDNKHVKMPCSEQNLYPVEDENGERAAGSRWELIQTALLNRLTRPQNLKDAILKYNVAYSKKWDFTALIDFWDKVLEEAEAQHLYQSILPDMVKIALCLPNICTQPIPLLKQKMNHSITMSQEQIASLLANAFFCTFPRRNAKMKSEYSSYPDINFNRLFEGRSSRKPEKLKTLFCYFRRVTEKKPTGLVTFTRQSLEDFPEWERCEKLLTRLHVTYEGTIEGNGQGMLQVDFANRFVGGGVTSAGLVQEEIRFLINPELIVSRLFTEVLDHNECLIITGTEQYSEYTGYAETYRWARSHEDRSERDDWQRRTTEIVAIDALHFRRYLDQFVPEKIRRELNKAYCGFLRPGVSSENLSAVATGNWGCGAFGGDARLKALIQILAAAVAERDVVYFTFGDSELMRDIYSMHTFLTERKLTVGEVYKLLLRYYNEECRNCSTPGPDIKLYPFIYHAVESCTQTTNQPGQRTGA

enzymatic activity (ADP-ribose released from ADP-ribose polymers): strongly inhibited
SMILES: Nc1ncnc2c1ncn2[C@@H]1O[C@H](COP(=O)(O)OP(=O)(O)OC[C@H]2NC[C@H](O)[C@@H]2O)[C@@H](O)[C@H]1O [ADP-hydroxymethylpyrrolidine diol]
